# Test results taken from patent publication US20170326125A1, “MULTISUBSTITUTED AROMATIC COMPOUNDS AS INHIBITORS OF THROMBIN” (VERSEON CORPORATION, priority 2016, published 2017).
# System: malignant breast tumors
# Test: not given
# Details: at 4 weeks, treated mice; cited from earlier work
row,SMILES,reduction in tumor volume [%]
1,CCCCCCOC(=O)NC(=N)c1ccc(NCc2nc3cc(C(=O)N(CCC(=O)OCC)c4ccccn4)ccc3n2C)cc1 [dabigatran etexilate],50

# Same assay, conditions: at 4 weeks; cited from earlier work
row,SMILES,weight loss in treated mice
1,CCCCCCOC(=O)NC(=N)c1ccc(NCc2nc3cc(C(=O)N(CCC(=O)OCC)c4ccccn4)ccc3n2C)cc1 [dabigatran etexilate],no weight loss

# Same assay, conditions: treated mice; cited from earlier work
row,SMILES,reduced tumor cells in the blood and liver micrometastases
1,CCCCCCOC(=O)NC(=N)c1ccc(NCc2nc3cc(C(=O)N(CCC(=O)OCC)c4ccccn4)ccc3n2C)cc1 [dabigatran etexilate],50-60%

# Molecular target: T1, Human thrombin (Homo sapiens, UniProt P00734)
# T1 construct: purchased Haematologic Technologies Inc
# Test: Inhibition of the protease activity of thrombin (chromogenic substrate S-2238)
# Format: biochemical
# Details: Table C; 3 nM thrombin, 125 μM S-2238, 10 min pre-incubation, RT
row,SMILES,IC50 [µM]
1,"O=C(c1ccco1)n1nc(-c2cccnc2)nc1NCc1ccc(F)cc1 [Cmpd 402, N-[(4-fluorophenyl)methyl]-1-[(furan-2-yl)carbonyl]-3-(pyridin-3-yl)-1H-1,2,4-triazol-5-amine]",< 0.1
2,"O=C(c1cccs1)n1nc(-c2cccnc2)nc1NCc1ccc(F)cc1 [Cmpd 403, N-[(4-fluorophenyl)methyl]-3-(pyridin-3-yl)-1-[(thiophen-2-yl)carbonyl]-1H-1,2,4-triazol-5-amine]",< 0.1
3,"COc1ccc(CNc2nc(-c3cccnc3)nn2C(=O)c2ccc(C)cc2)cc1 [Cmpd 404, N-[(4-methoxyphenyl)methyl]-1-[(4-methylphenyl)carbonyl]-3-(pyridin-3-yl)-1H-1,2,4-triazol-5-amine]",0.1 to 1
4,"COc1ccc(CNc2nc(-c3cccnc3)nn2C(=O)c2cccs2)cc1 [Cmpd 405, N-[(4-methoxyphenyl)methyl]-3-(pyridin-3-yl)-1-[(thiophen-2-yl)carbonyl]-1H-1,2,4-triazol-5-amine]",> 1
5,"CC(=O)Nc1n[nH]c(NCc2ccccc2)n1 [Cmpd 406, N-[5-(benzylamino)-1H-1,2,4-triazol-3-yl]acetamide]",> 1
6,"O=C(Nc1n[nH]c(-c2ccco2)n1)c1ccccc1 [Cmpd 407, N-[5-(furan-2-yl)-1H-1,2,4-triazol-3-yl]benzamide]",> 1
7,"O=C(c1ccccc1Cl)n1nc(-c2ccco2)nc1NCc1ccccc1 [Cmpd 408, N-benzyl-1-[(2-chlorophenyl)carbonyl]-3-(furan-2-yl)-1H-1,2,4-triazol-5-amine]",< 0.1
8,"O=C(c1ccccc1Cl)n1nc(-c2cccs2)nc1NCc1ccccc1 [Cmpd 409, N-benzyl-1-[(2-chlorophenyl)carbonyl]-3-(thiophen-2-yl)-1H-1,2,4-triazol-5-amine]",< 0.1
9,"Cc1ccc(C(=O)n2nc(-c3cccnc3)nc2NCc2ccccc2)cc1 [Cmpd 411, N-benzyl-1-[(4-methylphenyl)carbonyl]-3-(pyridin-3-yl)-1H-1,2,4-triazol-5-amine]",< 0.1
10,"O=C(c1cccs1)n1nc(-c2cccs2)nc1NCc1ccccc1 [Cmpd 412, N-benzyl-3-(thiophen-2-yl)-1-[(thiophen-2-yl)carbonyl]-1H-1,2,4-triazol-5-amine]",> 1
